Measured values taken from US8673904B2, “Epoxide inhibitors of cysteine proteases” (The Board of Trustees of the Leland Stanford Junior …, priority 2006, dated 2014).

System: cathepsin targets
Assay: Cathepsin targets of the compounds (Table 4)
Format: biochemical, rat
Settings: cathepsin target(s) inhibited; General = all cathepsins
Method: Also included in the table for comparison are known compounds JPMOEt and JPMOH (also known as JPM-565). See Meara and Rich, J. Med. Chem. 39:3357-3366, 1996; Bogyo et al, Chem. Biol. 7:27-38, 2000; and Joyce et al., Cancer Cell 5:443-453, 2004. The table also lists cathepsin targets and measured IC50 values for specific compounds. To determine these values, 1 mg/ml of rat liver lysate was incubated with a series of concentrations of the inhibitor for 20 minutes. Then, 1 ul of a radiolabled general cathepsin probe, DCG-04, was added to the solutions and incubated for 1 hour. After fixing and drying the gel, the residual enzyme activity was measured using ImageJ software. The measurements were then transferred to GraphPad Prism 4 to calculate the IC50 values.

Row | SMILES | Target
1 | CC(C)C[C@H](NC(=O)C1OC1C(=O)NCCc1ccccn1)C(=O)N[C@@H](Cc1ccc(O)cc1)C(N)=O (stereo partly shown) [Compound 22] | Cat B
2 | CC(C)C[C@H](NC(=O)[C@H]1OC1C(=O)N[C@H](C)c1ccccc1)C(=O)N[C@@H](Cc1ccc(O)cc1)C(N)=O (stereo partly shown) [Compound 29] | Cat B
3 | CC(C)C[C@H](NC(=O)C1O[C@H]1C(=O)NCCCCCCO)C(=O)N[C@@H](Cc1ccc(O)cc1)C(N)=O (stereo partly shown) [Compound 53] | Cat B
4 | CC(C)C[C@H](NC(=O)C1OC1C(=O)NN1CCN(C)CC1)C(=O)N[C@@H](Cc1ccc(O)cc1)C(N)=O (stereo partly shown) [Compound 30] | Cat B
5 | Cc1ccc(C[C@H](NC(=O)[C@H]2O[C@@H]2C(=O)NCCc2ccc(O)cc2)C(=O)N[C@@H](Cc2ccc(O)cc2)C(N)=O)cc1 [Compound 6] | Cat B
6 | CCOC(=O)C1OC1C(=O)N[C@@H](Cc1ccc(C)cc1)C(=O)N[C@@H](Cc1ccc(O)cc1)C(N)=O (stereo partly shown) [Compound 18] | Cat B
7 | CCOC(=O)C1OC1C(=O)N[C@@H](CC(C)C)C(=O)N[C@@H](Cc1ccc(O)cc1)C(N)=O (stereo partly shown) [Compound 59] | Cat B
8 | CC(=O)NCCNC(=O)[C@H]1O[C@@H]1C(=O)N[C@@H](Cc1ccc(C)cc1)C(=O)N[C@@H](Cc1ccc(O)cc1)C(N)=O [Compound 1] | Cat B
9 | Cc1ccc(C[C@H](NC(=O)[C@H]2OC2C(=O)O)C(=O)N[C@@H](Cc2ccc(O)cc2)C(N)=O)cc1 (stereo partly shown) [Compound 19] | Cat B
10 | Cc1ccc(C[C@H](NC(=O)C2O[C@@H]2C(=O)NN2CCN(C)CC2)C(=O)N[C@@H](Cc2ccc(O)cc2)C(N)=O)cc1 (stereo partly shown) [Compound 11] | Cat B
11 | CC(C)C[C@H](NC(=O)C1OC1C(=O)N[C@@H](C)c1ccccc1)C(=O)N[C@@H](Cc1ccc(O)cc1)C(N)=O (stereo partly shown) [Compound 37] | Cat B
12 | CC(=O)NCCNC(=O)C1O[C@@H]1C(=O)N[C@@H](CC(C)C)C(=O)N[C@@H](Cc1ccc(O)cc1)C(N)=O (stereo partly shown) [Compound 20] | Cat B
13 | CCOC(=O)C1OC1C(=O)N[C@@H](Cc1ccc(C)cc1)C(=O)NCc1cccc2ccccc12 (stereo partly shown) [Compound 119] | Cat Z
14 | CC(C)CNC(=O)C1OC1C(=O)N[C@@H](CC(C)C)C(=O)N[C@@H](Cc1ccc(O)cc1)C(N)=O (stereo partly shown) [Compound 57] | Cat B
15 | CC(C)C[C@H](NC(=O)C1O[C@H]1C(=O)NCCc1ccccn1)C(=O)N[C@@H](Cc1ccc(O)cc1)C(N)=O (stereo partly shown) [Compound 43] | Cat B
16 | Cc1ccc(C[C@H](NC(=O)C2O[C@@H]2C(=O)NCC(=O)O)C(=O)NCc2cccc3ccccc23)cc1 (stereo partly shown) [Compound 121] | Cat Z
17 | CC(C)C[C@H](NC(=O)C1OC1C(=O)NCCc1ccc(-c2ccccc2)cc1)C(=O)N[C@@H](Cc1ccc(O)cc1)C(N)=O (stereo partly shown) [Compound 45] | Cat B
18 | CC(C)C[C@H](NC(=O)C1OC1C(=O)NCC(N)=O)C(=O)N[C@@H](Cc1ccc(O)cc1)C(N)=O (stereo partly shown) [Compound 34] | Cat B
19 | Cc1ccc(C[C@H](NC(=O)C2OC2C(=O)NCc2ccccc2)C(=O)N[C@@H](Cc2ccc(O)cc2)C(N)=O)cc1 (stereo partly shown) [Compound 2] | Cat B
20 | Cc1ccc(C[C@H](NC(=O)C2OC2C(=O)NCCN2CCCCC2)C(=O)N[C@@H](Cc2ccc(O)cc2)C(N)=O)cc1 (stereo partly shown) [Compound 9] | Cat B
21 | CC(C)C[C@H](NC(=O)C1OC1C(=O)N[C@@H](C)c1ccccc1)C(=O)N[C@@H](Cc1ccc(O)cc1)C(N)=O (stereo partly shown) [Compound 58] | Cat B
22 | CCOC(=O)C1OC1C(=O)N(CC(=O)N[C@@H](Cc1ccc(O)cc1)C(N)=O)CC(C)C (stereo partly shown) [Compound 103] | Cat B
23 | CC(=O)NCCNC(=O)C1OC1C(=O)N[C@@H](CC(C)C)C(=O)N[C@@H](Cc1ccc(O)cc1)C(N)=O (stereo partly shown) [Compound 41] | Cat B
24 | Cc1ccc(C[C@H](NC(=O)C2OC2C(=O)N[C@H](C)c2ccccc2)C(=O)N[C@@H](Cc2ccc(O)cc2)C(N)=O)cc1 (stereo partly shown) [Compound 10] | Cat B
25 | Cc1ccc(C[C@H](NC(=O)C2OC2C(=O)NCCCO)C(=O)N[C@@H](Cc2ccc(O)cc2)C(N)=O)cc1 (stereo partly shown) [Compound 12] | Cat B
